Experimental data reported in PubChem BioAssay AID330 (DTP/NCI, 2004).
Where “and” joins values, the source holds several entries; their conditions need not be identical. Equal entries are not always repeated. Inconclusive results and toxic doses are left out.

System: P388 leukemia ip, CD2F1 mice, survival T/C
Experiment: NCI In Vivo Anticancer Drug Screen. Data for tumor model P388 Leukemia (intraperitoneal) in CD2F1 (CDF1) mice
Details: endpoint: median survival time, higher = longer survival
Method in brief: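 Mice carrying the transplanted tumor received test compound or vehicle. Survival was recorded in each group, and the value is the treated-group measurement divided by that of the vehicle-treated control group.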

[1] = dose: 25.0 mg/kg/injection, schedule: Q01DX009 (ip), vehicle: saline
[2] = dose: 100.0 mg/kg/injection, schedule: Q01DX009 (ip), vehicle: saline
[3] = dose: 50.0 mg/kg/injection, schedule: Q01DX009 (ip), vehicle: saline
[4] = dose: 60.0 mg/kg/injection, schedule: Q01DX005 (ip), vehicle: saline with Tween-80
[5] = dose: 120.0 mg/kg/injection, schedule: Q01DX005 (ip), vehicle: saline with Tween-80
[6] = dose: 240.0 mg/kg/injection, schedule: Q01DX005 (ip), vehicle: saline with Tween-80
[7] = dose: 50.0 mg/kg/injection, schedule: Q01DX005 (ip), vehicle: saline with Tween-80
[8] = dose: 100.0 mg/kg/injection, schedule: Q01DX005 (ip), vehicle: saline with Tween-80
[9] = dose: 200.0 mg/kg/injection, schedule: Q01DX005 (ip), vehicle: saline with Tween-80

COCC[P+](c1ccccc1)(c1ccccc1)c1ccccc1
T/C (dose: 1.56 mg/kg/injection, schedule: Q01DX009 (ip), vehicle: water): 103 % of control
T/C (dose: 3.13 mg/kg/injection, schedule: Q01DX009 (ip), vehicle: water): 99 % of control and 109 % of control
T/C (dose: 6.25 mg/kg/injection, schedule: Q01DX009 (ip), vehicle: water): 112 % of control and 123 % of control
T/C (dose: 12.5 mg/kg/injection, schedule: Q01DX009 (ip), vehicle: water): 123 % of control
T/C (dose: 25.0 mg/kg/injection, schedule: Q01DX009 (ip), vehicle: water): 105 % of control and 119 % of control
T/C (dose: 50.0 mg/kg/injection, schedule: Q01DX009 (ip), vehicle: water): 116 % of control

Clc1cc[c]([Sn]([Cl])([O][Sn]([Cl])([c]2ccc(Cl)cc2)[c]2ccc(Cl)cc2)[c]2ccc(Cl)cc2)cc1
T/C (dose: 3.12 mg/kg/injection, schedule: Q01DX005 (ip), vehicle: saline): 103 % of control
T/C (dose: 6.25 mg/kg/injection, schedule: Q01DX005 (ip), vehicle: saline): 108 % of control
T/C (dose: 12.5 mg/kg/injection, schedule: Q01DX005 (ip), vehicle: saline): 119 % of control
T/C (dose: 25.0 mg/kg/injection, schedule: Q01DX005 (ip), vehicle: saline): 162 % of control

COc1cc(C)c2sc3ccccc3c(=O)c2c1NCCN(C)C
T/C (dose: 12.5 mg/kg/injection, schedule: Q01DX009 (ip), vehicle: saline): 100 % of control and 104 % of control and 108 % of control
T/C [1]: 99 % of control and 108 % of control and 110 % of control
T/C (dose: 50.0 mg/kg/injection, schedule: Q01DX009 (ip), vehicle: saline with Tween-80): 96 % of control
T/C [2]: 111 % of control and 112 % of control

C[Si](C)(C)N1CCCC1
T/C [1]: 105 % of control
T/C [3]: 89 % of control
T/C [2]: 90 % of control
T/C (dose: 200.0 mg/kg/injection, schedule: Q01DX009 (ip), vehicle: saline): 107 % of control

Cc1cc(O)c(C(C)C)cc1S(=O)(=O)O (tested in a mixture with another compound)
T/C (dose: 100.0 mg/kg/injection, schedule: Q04DX003 (ip), vehicle: saline with Tween-80): 100 % of control
T/C (dose: 200.0 mg/kg/injection, schedule: Q04DX003 (ip), vehicle: saline with Tween-80): 95 % of control and 108 % of control
T/C (dose: 400.0 mg/kg/injection, schedule: Q04DX003 (ip), vehicle: saline with Tween-80): 108 % of control

COc1ccc(NS(=O)(=O)c2ccc(N=Cc3c4ccccc4nc4ccccc34)cc2)nn1
T/C (dose: 12.5 mg/kg/injection, schedule: Q04DX002 (ip), vehicle: Klucel (hydroxypropylcellulose) (HPC)): 96 % of control
T/C (dose: 25.0 mg/kg/injection, schedule: Q04DX002 (ip), vehicle: Klucel (hydroxypropylcellulose) (HPC)): 96 % of control
T/C (dose: 50.0 mg/kg/injection, schedule: Q04DX002 (ip), vehicle: Klucel (hydroxypropylcellulose) (HPC)): 89 % of control
T/C (dose: 100.0 mg/kg/injection, schedule: Q04DX002 (ip), vehicle: Klucel (hydroxypropylcellulose) (HPC)): 96 % of control
T/C (dose: 200.0 mg/kg/injection, schedule: Q04DX002 (ip), vehicle: Klucel (hydroxypropylcellulose) (HPC)): 89 % of control
T/C (dose: 400.0 mg/kg/injection, schedule: Q04DX002 (ip), vehicle: Klucel (hydroxypropylcellulose) (HPC)): 89 % of control

CC1SC2(C(=O)Nc3ccc(Br)cc32)N(c2ccc(Cl)cc2)C1=O (configuration not stated)
T/C [4]: 97 % of control
T/C [5]: 109 % of control
T/C [6]: 100 % of control

CC1=CCC2C(C)(C)CCCC2(C)C1COC1OC(OCC2C(C)=CCC3C(C)(C)CCCC23C)C2C1=CCC1C(C)(C)CCCC21C (configuration not stated)
T/C (dose: 15.0 mg/kg/injection, schedule: Q01DX009 (ip), vehicle: Klucel (hydroxypropylcellulose) (HPC)): 96 % of control
T/C (dose: 30.0 mg/kg/injection, schedule: Q01DX009 (ip), vehicle: Klucel (hydroxypropylcellulose) (HPC)): 102 % of control
T/C (dose: 60.0 mg/kg/injection, schedule: Q01DX009 (ip), vehicle: Klucel (hydroxypropylcellulose) (HPC)): 93 % of control
T/C (dose: 120.0 mg/kg/injection, schedule: Q01DX009 (ip), vehicle: Klucel (hydroxypropylcellulose) (HPC)): 94 % of control

OC1OC2COC(c3ccccc3)OC2C(O)C1O (configuration not stated)
T/C (dose: 25.0 mg/kg/injection, schedule: Q01DX005 (ip), vehicle: water): 100 % of control
T/C (dose: 50.0 mg/kg/injection, schedule: Q01DX005 (ip), vehicle: water): 100 % of control
T/C (dose: 100.0 mg/kg/injection, schedule: Q01DX005 (ip), vehicle: water): 100 % of control
T/C (dose: 200.0 mg/kg/injection, schedule: Q01DX005 (ip), vehicle: water): 101 % of control
T/C (dose: 400.0 mg/kg/injection, schedule: Q01DX005 (ip), vehicle: water): 107 % of control
T/C (dose: 800.0 mg/kg/injection, schedule: Q01DX005 (ip), vehicle: water): 95 % of control

CNC(=O)OCc1c(COC(=O)NC)c(-c2ccccc2)n(-c2ccc(Cl)c(Cl)c2)c1C
T/C (dose: 12.5 mg/kg/injection, schedule: Q01DX009 (ip), vehicle: distilled water + Tween-80): 117 % of control
T/C (dose: 25.0 mg/kg/injection, schedule: Q01DX009 (ip), vehicle: distilled water + Tween-80): 160 % of control
T/C (dose: 100.0 mg/kg/injection, schedule: Q01DX009 (ip), vehicle: distilled water + Tween-80): 155 % of control and 165 % of control
T/C (dose: 200.0 mg/kg/injection, schedule: Q01DX009 (ip), vehicle: distilled water + Tween-80): 155 % of control and 184 % of control
T/C (dose: 400.0 mg/kg/injection, schedule: Q01DX009 (ip), vehicle: distilled water + Tween-80): 87 % of control

O=C1NC(c2ccccc2)(c2ccccc2)C(=O)N1CCS
T/C (dose: 25.0 mg/kg/injection, schedule: Q04DX003 (ip), vehicle: Klucel (hydroxypropylcellulose) (HPC)): 99 % of control and 106 % of control
T/C (dose: 50.0 mg/kg/injection, schedule: Q04DX003 (ip), vehicle: Klucel (hydroxypropylcellulose) (HPC)): 100 % of control
T/C (dose: 100.0 mg/kg/injection, schedule: Q04DX003 (ip), vehicle: Klucel (hydroxypropylcellulose) (HPC)): 100 % of control and 114 % of control
T/C (dose: 200.0 mg/kg/injection, schedule: Q04DX003 (ip), vehicle: Klucel (hydroxypropylcellulose) (HPC)): 104 % of control and 108 % of control
T/C (dose: 400.0 mg/kg/injection, schedule: Q04DX003 (ip), vehicle: Klucel (hydroxypropylcellulose) (HPC)): 112 % of control and 114 % of control

CC1(C)OC(=O)C2(O1)C(=O)C1CCCCC12C (configuration not stated)
T/C [4]: 100 % of control
T/C [5]: 95 % of control
T/C [6]: 95 % of control

COc1cc(OC)c(Cc2cc3c(cc2OC)OCO3)c(OC)c1
T/C [4]: 91 % of control
T/C [5]: 87 % of control
T/C [6]: 87 % of control

CN(C)CCC1C2CC3CC(C2)CC1C3 (configuration not stated)
T/C [3]: 94 % of control
T/C [2]: 94 % of control

COc1ccc(C(=O)NCc2cccnc2)cc1C(=O)NCc1cccnc1
T/C [7]: 94 % of control
T/C [8]: 103 % of control
T/C [9]: 99 % of control

Cc1cc(C)c(CC(=O)O)c(C)c1
T/C (dose: 25.0 mg/kg/injection, schedule: Q01DX009 (ip), vehicle: Klucel (hydroxypropylcellulose) (HPC)): 111 % of control
T/C (dose: 50.0 mg/kg/injection, schedule: Q01DX009 (ip), vehicle: Klucel (hydroxypropylcellulose) (HPC)): 106 % of control
T/C (dose: 100.0 mg/kg/injection, schedule: Q01DX009 (ip), vehicle: Klucel (hydroxypropylcellulose) (HPC)): 105 % of control
T/C (dose: 200.0 mg/kg/injection, schedule: Q01DX009 (ip), vehicle: Klucel (hydroxypropylcellulose) (HPC)): 107 % of control

C=C(CN(C)C)C(=O)c1ccccc1Cl
T/C (dose: 1.8 mg/kg/injection, schedule: Q01DX005 (ip), vehicle: saline): 109 % of control
T/C (dose: 3.75 mg/kg/injection, schedule: Q01DX005 (ip), vehicle: saline): 106 % of control
T/C (dose: 7.5 mg/kg/injection, schedule: Q01DX005 (ip), vehicle: saline): 105 % of control and 107 % of control

C/C=C(\C)C(=O)N/N=C\c1cc(Cl)cc(Cl)c1O
T/C (dose: 12.5 mg/kg/injection, schedule: Q01DX009 (ip), vehicle: olive oil, sesame oil, peanut oil): 106 % of control
T/C (dose: 25.0 mg/kg/injection, schedule: Q01DX009 (ip), vehicle: olive oil, sesame oil, peanut oil): 98 % of control
T/C (dose: 50.0 mg/kg/injection, schedule: Q01DX009 (ip), vehicle: olive oil, sesame oil, peanut oil): 106 % of control
T/C (dose: 100.0 mg/kg/injection, schedule: Q01DX009 (ip), vehicle: olive oil, sesame oil, peanut oil): 102 % of control
T/C (dose: 200.0 mg/kg/injection, schedule: Q01DX009 (ip), vehicle: olive oil, sesame oil, peanut oil): 96 % of control
T/C (dose: 400.0 mg/kg/injection, schedule: Q01DX009 (ip), vehicle: olive oil, sesame oil, peanut oil): 93 % of control

O=C1Nc2ccccc2/C1=N/N(c1ccccc1)c1ccccc1
T/C [7]: 95 % of control
T/C [8]: 101 % of control
T/C [9]: 99 % of control
